The numbers were not newly measured in US20100062066A1, “Formulations of Tetrahydropyridine Antiplatelet Agents for Parenteral or Oral Administration” (Acusphere, Inc, priority 2006, published 2010), which cites them from elsewhere.

In the data set the test system is platelet aggregation. To be noted: background statement on clopidogrel enantiomers.

Consider `COC(=O)C(c1ccccc1Cl)N1CCc2sccc2C1` (single isomer, unassigned) [R-enantiomer], for which the anti-aggregation activity entry was “does not exhibit any anti-aggregation activity”.

Regarding `COC(=O)[C@H](c1ccccc1Cl)N1CCc2sccc2C1` (single isomer, unassigned; enantiomer 2) [S-enantiomer, 2-(2-chlorophenyl)-2-(2,4,5,6,7,7a-tetrahydrothieno[3,2-c]pyridine)-5-yl-acetic acetic acid methyl ester], the anti-aggregation activity result is “biologically active”.
